Laboratory results published in patent publication US7485434B2, “Method for screening compounds for those that modulate transducers of regulated CREB activity” (The Salk Institute for Biological Studies, priority 2005, dated 2009).

Assays:
[1] = system: AMPK; details: cited from earlier work
[2] = system: TORC2; experiment: TORC2 phosphorylation in primary rat hepatocytes (Western blot); assay type: cell-based; details: primary hepatocytes; AICAR 1 mM, in the presence of FSK, 30 minutes
Excerpt: FIG. 18B illustrates the effect of CHX on levels of phospho (Ser171) TORC2 in primary rat hepatocytes treated with glucagon over a variety of time points, shown in hours. Western blot assay indicates the levels of TORC2, phospho (Ser171) TORC2 and CREB.
Specifically, FIG. 19A, top, presents a Western blot showing the effect of US and SIK1 RNAi adenoviruses on the levels of SIK1 protein in rat hepatocytes. FIG. 19A, bottom, presents a Western blot assay with nondiscriminating TORC2 antiserum, showing the effect of SIK1 RNAi adenovirus on TORC2 dephosphorylation (compare P-TORC2 and TORC2 bands) following exposure of primary rat hepatocytes to glucagon (Gluc). The arrow identifies phosphorylated TORC2.
Cells were exposed to AICAR and FSK for 30 minutes. Lower mobility bands (arrow) indicate phosphorylated TORC2 polypeptides.
Rat primary hepatocytes were prepared from 200-300g of Sprague-Dawley rats by collagenase perfusion method as described previously (see Koo et al., 2004). 1×10^6 cells were plated in 6 well plates with medium 199 (Invitrogen, Carlsbad, Calif.) supplemented by 10% FBS, 10 units/ml penicillin, 10 μg/ml streptomycin, and 10 nM dexamethasone for 3-6 hours. After attachment, cells were infected with adenoviruses for 16 hours. Subsequently, cells were maintained in medium 199 without FBS and dexamethasone for 24 hours (for cDNA expression adenoviruses) or 48 hours (for RNAi adenoviruses) and […] forskolin or 100 nM glucagon for 2 hours unless noted otherwise. For experiments with cycloheximide, 10 μg/ml cycloheximide was added 30 minutes prior to the addition of 100 nM glucagon.
Like other signaling pathways, cAMP stimulates gluconeogenic gene expression with burst-attenuation kinetics (see Sasaki et al., 1984). Following exposure of primary hepatocytes to Forskolin, PEPCK mRNA levels became maximal after 2 hours, returning to near baseline after 4 hours (see FIG. 18A). […] Consistent with this, CHX pre-treatment potentiated gluconeogenic gene expression in primary rat hepatocytes exposed to glucagon 2-3 fold (see FIG. 18C). […]

[3] = system: gluconeogenic genes (PEPCK, PGC-1α, G6Pase); experiment: Q-PCR of gluconeogenic gene expression in primary rat hepatocytes; assay type: cell-based; details: primary hepatocytes
Protocol: Specifically, FIG. 17A illustrates the effect of TORC2 on induction of gluconeogenic genes (PEPCK, PGC-1α, G6Pase) by FSK (10 μM, 2 hr) in cultured primary rat hepatocytes infected with TORC2 or control GFP adenovinus as indicated.
FIGS. 18A-18H illustrate that the induction of the AMP kinase family member SIK1 by CREB during fasting attenuates the gluconeogenic program. Specifically, FIG. 18A illustrates the time course of PEPCK gene expression in primary rat hepatocytes following exposure to FSK. mRNA levels were determined by Q-PCR analysis.
FIG. 18C illustrates the effect of CHX pretreatment on induction of gluconeogenic genes (PEPCK, PGC-1α, G6Pase) by glucagon in primary rat hepatocytes. Relative mRNA levels are shown.
FIG. 19B summarizes the effect of SIK1 RNAi on gluconeogenic gene expression in primary rat hepatocytes, presenting Q-PCR analysis showing the relative induction of PEPCK, PGC-1α, and G6Pase mRNAs by glucagon in cells infected with control (US) or SIK1 RNAi expressing adenoviruses.
FIG. 20D summarizes the effect of AlCAR on expression of gluconeogenic genes (PEPCK, PGC-1α) in primary rat hepatocytes. Cells infected with mutant Ser171Ala TORC2 (171) adenovinus indicated. Treatment with AICAR and FSK is shown.
Rat primary hepatocytes were prepared from 200-300g of Sprague-Dawley rats by collagenase perfusion method as described previously (see Koo et al., 2004). […]

[4] = system: TORC2; experiment: Cellular localization of TORC2 in primary rat hepatocytes; assay type: cell-based; details: wild-type or Ser171Ala TORC2
Protocol: FIG. 20C illustrate the effect of AICAR and SIK1 on cellular localization of wild-type or Ser171 Ala TORC2 in primary rat hepatocytes. Cells were infected with adenoviruses for HA-tagged wild-type or mutant TORC2 and SIK1 as indicated. Infected cells were exposed to FSK and AICAR for 30 minutes. TORC2 localization was examined with anti-HA antiserum. Cells were counterstained with DAP1 to visualize nuclei.
Based on its ability to promote Ser171 phosphorylation, AMPK might be expected to inhibit nuclear entry of TORC2 in cells exposed to FSK. […] Confirming the pivotal role of Ser171 in this regard, mutant Ser171Ala TORC2 remained constitutively nuclear under both conditions.

| Structure (SMILES) | effect on AMPK [1] | phosphorylation of endogenous TORC2 [2] | effect on induction of PEPCK and PGC-1α genes in response to FSK [3] | effect on nuclear entry of TORC2 in cells exposed to FSK [4] |
| --- | --- | --- | --- | --- |
| CN(C)C(=N)N=C(N)N [metformin] | activates AMPK |  |  |  |
| NC(=O)c1ncn([C@@H]2O[C@H](CO)[C@@H](O)[C@H]2O)c1N [AICAR, 5-aminoimidazole-4-carboxamide riboside] |  | triggered robust phosphorylation of endogenous TORC2 | blocked induction of PEPCK and PGC-1α genes | inhibited nuclear entry of wild-type, but not SerAla171 TORC2 |
